In US6534082B1, “Method of treating disorders of the eye” (Duke University, priority 1994, dated 2003):

Tested on: enucleated cow eyes
Assay: Constant pressure perfusion of enucleated cow eyes, outflow facility
Conditions: 5 h perfusion, 22° centigrade, 15 mm of mercury; for increase in outflow facility at the end of the experiment versus initial baseline: 0.125 mM drug in perfusion medium, ± SEM; for increase in outflow facility at the end of the experiment versus initial baseline, drug plus cysteine: 0.125 mM drug plus 0.625 mM cysteine
Procedure: Enunciated cow eyes were obtained from a local commercial abattoir, immediately chilled, and then perfused within twenty-four hours using a standard constant pressure perfusion technique. Pairs of eyes from a single animal were used for each experiment and subjected to the same manipulation except for the experimental drug in the experimental eye of perfusion. Briefly, a 5 mm central cornea trephine button was removed from each eye. Radial iridotomy was performed to prevent artificial deepening of the anterior chamber during perfusion. The anterior chamber was then gently irrigated with perfusion medium to remove pigment which might have been liberated by the iridotomy. A Grant stainless steel fitting was then placed into the cornea and connected by twenty-three gauge polyethylene tubing to the fluid reservoir of the perfusion apparatus.
The perfusion medium was Dulbecco's phosphate-buffered salt solution (PBS) (Grand Island Biological Company, Grand Island, N.Y.) with added 5.5 mM glucose. All solutions were filtered through a 0.2 μm Nuclepore filter.
The initial flow value was determined after the eyes had been perfused for one hour which allowed sufficient time to achieve adequate stability. The corneal fitting was removed, and the anterior chamber was gently emptied and refilled with fresh perfusion medium with added drug or sham solution. The corneal fitting was replaced and the eye was perfused for an additional five hours. The outflow facility (flow/pressure) was calculated at the end of the experiment and compared to the initial baseline after the initial hour (pre-drug, both eyes received control perfusion medium for the first hour). The change in the experimental eye was compared to the change in the fellow control eye by a paired T-test. Control eyes were treated similarly except that an osmotically equivalent amount of sodium chloride was added to the perfusion medium in place of the drug. All perfusions were performed at 22° centigrade and the perfusion pressure was 15 mm of mercury.

SMILES | increase in outflow facility at the end of the experiment versus initial baseline | increase in outflow facility at the end of the experiment versus initial baseline, drug plus cysteine
CC1(c2ccccc2)Cc2cc(OCC(=O)O)c(Cl)c(Cl)c2C1=O (stereo not shown) [indacrinone] | 113%±24% | 91%±8
O=C(O)COc1ccc(C(=O)c2cccs2)c(Cl)c1Cl [ticrynafen] | 102%±23% | 80%±9%
